Measurements taken from patent US20080096770A1, “Evaluation of the Toxicity of Pharmaceutical Agents” (priority 2004, published 2008).
Where two headings read alike, the source gives them in different places.

Legend:
Assay type in all cases: cell-based
[1] = tested on: TK6 human lymphoblastoid cells; conditions: for EC50: 24 h dilution series, determined by cell density and the Alamar Blue assay, read-out: approximated EC50 (cytotoxic concentration for 50% cell death; equicytotoxic concentration); for Cell Density (±S.D.): 24 h treatment at the optimized cytotoxic concentration (Table 1), aim 40-60% viability decrease
Procedure: (§1) The human lymphoblastoid cell line TK6 (ATCC, Manassas, Va.) was cultured in RPMI 1640 medium (with Glutamax and 10% FHS) at a cell density of 0.2×10^5 to 10×10^5 cells/ml. Cells were routinely subcultured starting from frozen aliquots after […]. For experiments, passage numbers between 3 to 15 were used.
(§2) Cytotoxic concentrations were determined either by measuring cell density on a Sysmex Cell Counter (Sysmex America, Inc., Mundelein, Ill.) or by metabolic cell activity using the Alamar Blue (Serotec Inc., Raleigh, N.C.) cytotoxicity assay. Alamar Blue indicator dye quantitatively measures proliferation in human and other cells. Alamar Blue is a sensitive fluorimetric and calorimetric reagent sensitive to the redox state of the growth medium. Cell density by Sysmex was measured after the 24 h treatment. Cytotoxicity by Alamar Blue was measured 3 hours prior to end of treatment, i.e., at 21 hours. 200 III of cell suspension were mixed with 20 μl of Alamar Blue reagent in a 96-well plate and measured once/hour using a fluorescence plate reader with 544 nm excitation and 612 nm emission filters. Cell suspension samples from the cytotoxicity dilution series were analyzed for cytometry endpoints by Laser Scanning Cytometry.
(§3) TK6 human lymphoblastoid cells were exposed to following treatments (24 hours, 0.15×10^6 cells/ml):
Dose-response determination to provide the doses given in column 4 of Table 1 was carried out with an initial cell density of 0.15×10^6 cells/ml (see Example 1).
(§4) The six model compounds identified in Table 1 were applied in a dilution series to TK6 cells. The resulting dilution series for each of the six compounds provided individually optimized cytotoxic concentrations for 50% cell death (EC50) as determined by cell density and the Alamar Blue assay. It is possible that cell density and the Alamar Blue assay may not give identical cytotoxicity profiles. Thus, concentrations of the compounds were optimized with the objective to have both cytotoxicity parameters within the range of 40-60% viability decrease. In addition, for representative dilution series several cytometry endpoints were analyzed (BrdU incorporation, KI-67 staining (Histogenex, Edegem, Belgium), propidium iodide staining), although these parameters were not used for concentration selection.

[2] = tested on: TK6 human lymphoblastoid cells; assay: Alamar Blue cytotoxicity assay (metabolic cell activity); conditions: measured at 21 hours, at the optimized cytotoxic concentration (Table 1), aim 40-60% viability decrease
Procedure: as §1, §2, §3, §4

[3] = tested on: TK6 human lymphoblastoid cells; conditions: dilution series up to or around the EC50 values (FIG. 1)
Procedure: FIG. 1. Graphical representation of the percentage of cells in G2 phase as a function of dilution of the indicated genotoxic and nongenotoxic compounds (points 1-9), with control samples at points 10-12. An original color image has been converted to grayscale by computer.
as §2
The six model compounds identified in Table 1 were applied in a dilution series to TK6 cells. […]

[4] = tested on: TK6 human lymphoblastoid cells; assay: Microarray gene expression profiling with PLS-DA / KNN discrimination of cytotoxic versus genotoxic compounds (Examples 1-7); conditions: 24 h
Procedure: Total RNA was isolated after 24 hours of treatment with the agents or control using Qiagen's (Hilden, Germany) RNeasy Mini Kits. Samples were made up of 10 ml TK6 cell suspensions with an approximate cell density of 0.3×10^6 cells/ml. Column-purified RNA was eluted with 40 μl water and quality-checked by UV spectrometry and Agilent's “lab-on-a-chip” technology (RNA nano chip, Bioanalyzer 2100, Agilent Technologies, Santa Clara, Calif.). RNA extraction and purification is described by the manufacturer of the GeneChip system.
Purified total human TK6 RNA was analyzed using the human specific Human Genome U133, 2.0 array (Affymetrix). […] Sequences used in the design of the array were selected from GenBank®, dbEST, and RefSeq.
The resulting primary raw data, the image files (.dat files), were processed using the Microarray Analysis Suite 5 (MAS5) software (Affymetrix). Tab-delimited files were obtained containing data regarding signal intensity (Signal) and categorical expression level measurement (Absolute Call).
The raw data obtained from the GeneChip by MAS5 were imported to GeneSpring 7.2 for analysis. Data were normalized per chip and per gene to the respective median. Genes were annotated according to LocusLink nomenclature (http://www.ncbi.nlm.nih.gov/LocusLink/).
Filtering of the data was performed according to following criteria for each gene:
Fold-change refers to the ratio of genotoxic versus cytotoxic. Since these studies seek robust predictor genes the limit ratios (1.4 and 0.7) were selected in order to excluded genes that show consistent but only small differences. […]
PLS-DA was applied iteratively to the gene expression data with cyto- and genotcoxicity as class variables. […] The final model was validated by response permutation; i.e. the class membership of each sample was randomly attributed, evaluated by the model and contrasted to the solution of the model with the original class membership. […]

[5] = TK6 cells, equicytotoxic concentrations, cytotoxic samples above or at 0, genotoxic samples below 0

Question: What does the source list for `N.N.[Cl][Pt][Cl]` [cis-Platinum, cis-diammineplatinum(II) dichloride]?
Answer: EC50 [1]: 1.3 µM; Cell Density (±S.D.) [1]: 53 ± 4%; Alamar Blue (±S.D.) [2]: 46 ± 5%

Question: With `N.N.[Cl][Pt][Cl]` [trans-Platinum, trans-diammineplatinum(II) dichloride] as the compound, how does the EC50 ([1]; listed as tPt) read?
Answer: 33 µM

Question: What about the “Cell Density (±S.D.)” value [1] of the same compound?
Answer: 58 ± 7%

Question: And the “Alamar Blue (±S.D.)” value [2]?
Answer: 36 ± 13%

Question: For `CO[C@@]12[C@H](COC(N)=O)C3=C(C(=O)C(C)=C(N)C3=O)N1C[C@@H]1N[C@@H]12` [Mitomycin C], which “Cell Density (±S.D.)” value [1] is on record?
Answer: 53 ± 3%

Question: What about the “Alamar Blue (±S.D.)” value [2] of the same compound?
Answer: 48 ± 1%

Question: How did the “Cell Density (±S.D.)” value [1] turn out when `[Cl-].[Na+]` [NaCl] was run?
Answer: 30 ± 4%

Question: What about the “Alamar Blue (±S.D.)” value [2] of the same compound?
Answer: 65 ± 5%

Question: And the “shifts in cell cycle parameters / G2 phase block” value [3]?
Answer: no significant shifts in cell cycle parameters

Question: And the “scores of first component t[1] of PLS-DA with all 215 genes (FIG. 4)” value [4, 5]?
Answer: above or at t[1]=0

Question: How did the “Cell Density (±S.D.)” value [1] turn out when `COS(C)(=O)=O` [Methyl methanesulfonate] was run?
Answer: 44 ± 2%

Question: What about the “Alamar Blue (±S.D.)” value [2] of the same compound?
Answer: 43 ± 8%

Question: What about the “scores of first component t[1] of PLS-DA with all 215 genes (FIG. 4)” value ([4]; human) of the same compound?
Answer: below t[1]=0

Question: What does the source list for `CO[C@H]1/C=C/O[C@@]2(C)Oc3c(C)c(O)c4c(O)c(c(/C=N/N5CCN(C)CC5)c(O)c4c3C2=O)NC(=O)/C(C)=C\C=C\[C@H](C)[C@H](O)[C@@H](C)[C@@H](O)[C@@H](C)[C@H](OC(C)=O)[C@@H]1C` [Rifampicin]?
Answer: Cell Density (±S.D.) [1]: 52 ± 9%; Alamar Blue (±S.D.) [2]: 61 ± 8%; shifts in cell cycle parameters / G2 phase block [3]: no significant shifts in cell cycle parameters; scores of first component t[1] of PLS-DA with all 215 genes (FIG. 4) [4, 5]: above or at t[1]=0
